Measured values: patent US20250333397A1 (REMIX THERAPEUTICS INC., priority 2021, published 2025)
Read-outs that look alike come from different tables or passages of the source.

Legend:
Format in all cases: cell-based, human
[1] = tested on: HTT mRNA; test: RT-qPCR splicing assay, HTT canonical (CJ) and alternative (AJ) junction mRNA; details: Homo sapiens; for AC50: read-out: HTT AJ (AC50, increase in AJ mRNA)
Description: (§1) Compounds described herein were used to modulate RNA transcript abundance in cells. The expression of a target mRNA was measured by detecting the formation of an exon-exon junction in the canonical transcript (CJ). A compound mediated exon-inclusion event was detected by observing an increase in formation of a new junction with an alternative exon (AJ). Real-time qPCR assays were used to detect these splicing switches and interrogate the potency of various compounds towards different target genes. A high-throughput real time quantitative PCR (RT-qPCR) assay was developed to measure these two isoforms of the mRNA (CJ and AJ) for exemplary genes, such as HTT, SMN2, and MYB, together with a control housekeeping gene, GAPDH or GUSB or PPIA, used for normalization. Briefly, the A673 or K562 cell line was treated with various compounds described herein (e.g., compounds of Formula (I), (II), (III), (IV)). After treatment, the levels of the HTT, MYB, or SMN2 mRNA targets were determined from each sample of cell lysate by cDNA synthesis followed by qPCR.
(§2) The A673 cell line was cultured in DMEM with 10% FBS. Cells were diluted with full growth media and plated in a 96-well plate (15,000 cells in 100ul media per well). The plate was incubated at 37° C. with 5% CO2 for 24 hours to allow cells to adhere. An 11-point 3-fold serial dilution of the compounds was made in DMSO then diluted in media in an intermediate plate. Compounds were transferred from the intermediate plate to the cell plate with the top dose at a final concentration of 10 uM in the well. Final DMSO concentration was kept at or below 0.25%. The cell plate was returned to the incubator at 37° C. with 5% CO2 for an additional 24 hours.
(§3) The K562 cell line was cultured in IMDM with 10% FBS. For K562, cells were diluted with full growth media and plated in either a 96-well plate (50,000 cells in 50 uL media per well) or a 384-well plate (8,000-40,000 cells in 45 uL media per well). An 11-point 3-fold serial dilution of the compounds were made in DMSO then diluted in media in an intermediate plate.
(§4) Compound was transferred from the intermediate plate to the cell plate with the top dose at a final concentration of 10 uM in the well. Final DMSO concentration was kept at or below 0.25%.
(§5) Final volume was 100 uL for 96-well plate and 50 uL for 384-well plate. The cell plate was then placed in an incubator at 37° C. with 5% CO2 for 24 hours.
(§6) The cells were then gently washed with 50 uL-100 uL cold PBS before proceeding to addition of lysis buffer. 30 uL-50 μL of room temperature lysis buffer with DNAse I (and optionally RNAsin) was added to each well. Cells were shaken/mixed thoroughly at room temperature for 5-10 minutes for lysis to take place and then 3 uL-5 μL of room temperature stop solution was added and wells were shaken/mixed again. After 2-5 minutes, the cell lysate plate was transferred to ice for RT-qPCR reaction setup. The lysates could also be frozen at −80° C. for later use.
(§7) In some cases, a direct lysis buffer was used. An appropriate volume of 3× lysis buffer (10 mM Tris, 150 mM NaCl, 1.5%-2.5% Igepal and 0.1-1 U/uL RNAsin, pH 7.4) was directly added to either K562 or A673 cells in media and mixed by pipetting 3 times. The plates were then incubated at room temperature with shaking/rocking for 20-50 minutes to allow for lysis to take place. After this time, the cell lysate plate was transferred to ice to set up for the RT-qPCR reactions. The lysates could also be frozen at −80° C. for later use.
(§8) To set up 10 uL RT-qPCR reactions, cell lysates were transferred to 384-well qPCR plates containing the master mix according to the table below. The plates were sealed, gently vortexed, and spun down before the run. The volumes were adjusted accordingly in some instances where the reaction was carried in 20 μL. The table below summarizes the components of the RT-qPCR reactions: […]

[2] = tested on: MYB mRNA; test: RT-qPCR splicing assay, MYB canonical (CJ) and alternative (AJ) junction mRNA; details: Homo sapiens; for AC50: read-out: MYB AJ (AC50, increase in AJ mRNA)
Description: as §1, §2, §3, §4, §5, §6, §7, §8

[3] = tested on: SMN2 mRNA; test: RT-qPCR splicing assay panel, SMN2 canonical junction (CJ) mRNA; details: Homo sapiens
Description: as §1, §2, §3, §4, §5, §6, §7, §8

[4] = tested on: Target C mRNA; test: RT-qPCR splicing assay panel, Target C canonical junction (CJ) mRNA; details: Homo sapiens
Description: as §1, §2, §3, §4, §5, §6, §7, §8

[5] = 24 h, Table 3A, A673 or K562 cells, 24 h treatment
[6] = 24 h, Table 3A, A673 or K562 cells, 24 h treatment, read-out: HTT CJ (IC50, decrease in CJ mRNA)
[7] = canonical junction (CJ) mRNA, RT-qPCR panel, Table 4A, read-out: HTT, decrease in CJ mRNA levels, IC50
[8] = 24 h, Table 3A, A673 or K562 cells, 24 h treatment, read-out: MYB CJ (IC50, decrease in CJ mRNA)
[9] = canonical junction (CJ) mRNA, RT-qPCR panel, Table 4A, read-out: MYB, decrease in CJ mRNA levels, IC50
[10] = canonical junction (CJ) mRNA, RT-qPCR panel, Table 4A, read-out: SMN2, decrease in CJ mRNA levels, IC50
[11] = canonical junction (CJ) mRNA, RT-qPCR panel, Table 4A, read-out: Target C, decrease in CJ mRNA levels, IC50
[12] = 24 h, Table 3B, A673 or K562 cells, 24 h treatment
[13] = 24 h, Table 3B, A673 or K562 cells, 24 h treatment, read-out: HTT CJ (IC50, decrease in CJ mRNA)
[14] = Table 4B, gene panel, read-out: HTT (IC50, decrease in CJ mRNA levels)
[15] = 24 h, Table 3B, A673 or K562 cells, 24 h treatment, read-out: MYB CJ (IC50, decrease in CJ mRNA)
[16] = Table 4B, gene panel, read-out: MYB (IC50, decrease in CJ mRNA levels)
[17] = Table 4B, gene panel, read-out: SMN2 (IC50, decrease in CJ mRNA levels)
[18] = Table 4B, gene panel, read-out: Target C (IC50, decrease in CJ mRNA levels)

Row | IC50 [1, 6] [nM] | IC50 [1, 7] [nM] | IC50 [2, 8] [nM] | IC50 [2, 9] [nM] | IC50 [3, 10] [nM] | IC50 [4, 11] [nM] | IC50 [1, 13] [nM] | IC50 [1, 14] [nM] | IC50 [2, 15] [nM] | IC50 [2, 16] [nM] | IC50 [3, 17] [nM] | IC50 [4, 18] [nM] | SMILES | AC50 [1, 5] [nM] | AC50 [2, 5] [nM] | AC50 [1, 12] [nM] | AC50 [2, 12] [nM]
1 | – | – | – | – | – | – | 1000 to 10000 | 1000 to 10000 | 1000 to 10000 | 1000 to 10000 | 100 to 1000 | 1000 to 10000 | COc1cc2cc(-c3ccc(N4CCC(NC(C)(C)C)C4)nn3)c(O)cc2nn1 (stereo not shown) [Compound 819] | – | – | 1000 to 10000 | 1000 to 10000
2 | – | – | – | – | – | – | < 100 | < 100 | 100 to 1000 | 100 to 1000 | < 100 | 100 to 1000 | Cc1nc2cc(O)c(-c3ccc(N4CC[C@H](N(C)C(C)(C)C)C4)nn3)cc2o1 [Compound 858] | – | – | < 100 | 100 to 1000
3 | < 100 | < 100 | < 100 | < 100 | < 100 | < 100 | – | – | – | – | – | – | Cc1ncc(-c2cc(O)c(-c3ccc(N4CC[C@@H](NC(C)(C)C)C4)nn3)cc2F)s1 [Compound 338, 2-{6-[(3R)-3-(tert-butylamino)pyrrolidin-1-yl]pyridazin-3-yl}-4-fluoro-5-(2-methyl-1,3-thiazol-5-yl) phenol] | < 100 | < 100 | – | –
4 | < 100 | – | < 100 | – | – | – | – | – | – | – | – | – | COc1cc(-c2cc(O)c(-c3ccc(N4CC[C@H](N(C)C(C)(C)C)C4)nn3)cc2F)cnn1 [Compound 234, 2-{6-[(3S)-3-[tert-butyl(methyl)amino]pyrrolidin-1-yl]pyridazin-3-yl}-4-fluoro-5-(6-methoxypyridazin-4-yl)phenol] | < 100 | < 100 | – | –

The remaining lines, values behind:

Row | SMILES | IC50 [1, 6] [nM] | IC50 [1, 7] [nM] | IC50 [2, 8] [nM] | IC50 [2, 9] [nM] | IC50 [3, 10] [nM] | IC50 [4, 11] [nM] | IC50 [1, 13] [nM] | IC50 [1, 14] [nM] | IC50 [2, 15] [nM] | IC50 [2, 16] [nM] | IC50 [3, 17] [nM] | IC50 [4, 18] [nM] | AC50 [1, 5] [nM] | AC50 [2, 5] [nM] | AC50 [1, 12] [nM] | AC50 [2, 12] [nM]
5 | COc1cc(-c2ccc(-c3ccc(N4CCC(NC5CC(C)(C)C5)C4)nn3)c(O)c2)cnn1 (stereo not shown) [Compound 352, 2-(6-{3-[(3,3-dimethylcyclobutyl)amino]pyrrolidin-1-yl}pyridazin-3-yl)-5-(6-methoxypyridazin-4-yl)phenol] | 100 to 1000 | 100 to 1000 | 100 to 1000 | 100 to 1000 | 100 to 1000 | 100 to 1000 | – | – | – | – | – | – | 100 to 1000 | 1000 to 10000 | – | –
6 | COc1cc(-c2ccc(-c3ccc(N4CC[C@H](N(C)C5CCC5)C4)nn3)c(O)c2)cnn1 [Compound 239] | < 100 | – | 100 to 1000 | – | – | – | – | – | – | – | – | – | < 100 | 100 to 1000 | – | –
7 | Cc1ncc(-c2cc(O)c(-c3ccc(N4CC[C@@H](CNC5CCC5)C4)nn3)cc2F)s1 [Compound 453] | – | < 100 | – | 1000 to 10000 | < 100 | 1000 to 10000 | – | – | – | – | – | – | – | – | – | –
8 | COc1cc(-c2ccc(-c3cc(C)c(N4CC[C@H](NC5CCC5)C4)nn3)c(O)c2)cnn1 [Compound 449, 2-{6-[(3S)-3-(cyclobutylamino)pyrrolidin-1-yl]-5-methylpyridazin-3-yl}-5-(6-methoxypyridazin-4-yl)phenol] | 100 to 1000 | 100 to 1000 | 100 to 1000 | 100 to 1000 | < 100 | 1000 to 10000 | – | – | – | – | – | – | 100 to 1000 | 100 to 1000 | – | –
